Where two headings read alike, the source gives them in different places.
Key:
A. baumannii ATCC 17978 = assay type: cell-based, Acinetobacter baumannii; conditions: spotted on MHA plate, 24 h
Experimental: Following CLSI guideline M07-A11, single bacterial colonies of A. baumannii ATCC 17978 grown on Müller–Hinton agar (MHA) plates were picked and inoculated in 4 mL of Müller–Hinton broth (MHB) at 37°C and shaken at 180 rpm for 4∼6 h. The bacterial broth was diluted in the same medium to give a cell density of 1∼2 × 10^8 CFU/mL (OD600 = 0.38∼0.4 for A. baumannii) (Supplementary Figure 1; [Dillon et al., 2020]). Then, the broth was diluted 20-fold. Peptides were dissolved in water and filtered through a 0.2-μm filter to make a stock solution. The peptide concentration was quantified by the UV280. Then, the peptide solution was serially diluted in MHB to final peptide concentrations of 1, 2, 4, 8, 16, and 32 μg/mL. One hundred microliters of serially diluted peptide and 10 μL of bacterial culture were mixed in a 96-well polystyrene plate. Each well contained approximately 5 × 10^5 CFU/mL. The positive control was a mixture of 100 μL of MHB and 10 μL of the bacterial culture. The negative control was 110 μL of MHB. The plates were incubated at 37°C without shaking. […] The bacterium-peptide mixtures (the mixture without visible growth and the mixture containing a two-fold […] peptide concentration than the mixture without growth), positive control, and negative control (3 μL each) were spotted on an MHA plate and incubated at 37°C for 24 h. The MBC was determined as the lowest peptide concentration at which no colonies formed.
The MIC and MBC of our designed peptides against A. baumannii were obtained by using the broth microdilution method in the CLSI protocol. The bacterial cell number was carefully counted, and a final cell density of 5 × 10^5 CFU/mL in each well was used in the MIC test (Supplementary Figure 1). The minimal peptide concentration at which no bacterial growth was observed was taken as the MIC value. The culture after peptide treatment was spotted on an MHA plate, and the peptide concentration that could kill all the bacteria was defined as the MBC. The MIC/MBC and hemolytic activity of these peptides are shown and compared in Figure 1.

in vitro = in vitro ADME, rat; conditions: rat, plasma, rat plasma, room temperature
Experimental: EDTA-treated rat whole blood was centrifuged at 4°C and 840 × g for 5 min, and then the blood cells were removed ([[…] et al., 2019]). The supernatant was placed in an Eppendorf tube and centrifuged at 4°C and 13,000 rpm for 10 min to remove lipids (white precipitate). The supernatant was filtered through a 0.2-μm filter. The peptide was dissolved in water and filtered through a 0.2-μm filter. The peptide concentration was quantified by the UV280 to make a 1 mg/mL stock solution. […] At the indicated time, the peptide was analyzed by HPLC with a C18 column using a linear gradient of 20-65% B over 15 min. Solution A: 5% acetonitrile plus 0.1% trifluoroacetic acid in water; solution B: 0.1% trifluoroacetic acid in acetonitrile.

A. baumannii 17978 = test: Time-kill kinetics assay in MHB; assay type: cell-based, Acinetobacter baumannii; conditions: 37°C with shaking, 4 μg/mL for both peptides
Experimental: FIGURE 4 Time-kill kinetics assay. […] This experiment was performed in ex vivo whole rat blood at room temperature without shaking. A. baumannii (final concentration of 10^7 CFU/mL) was incubated with or without peptide (4 μg/mL) for 60 min. At the indicated time points, an aliquot of the sample was removed and diluted, and the remaining cell number was counted by plating on MHA plates. The data are expressed as the mean ± SD. […] A. baumannii (final concentration of 10^7 CFU/mL) was incubated with or without peptide at 37°C with shaking. The peptide concentration was 4 μg/mL for both peptides.

HEK293 cells = assay type: cell-based, human
Experimental: Cell viability assays were performed by using the CellTiter 96® AQueous Non-Radioactive Cell Proliferation Assay (Promega, United States), in which 3-(4,5-dimethylthiazol-2-yl)-5-(3-carboxymethoxyphenyl)-2-(4-sulfophenyl)-2H-tetrazolium salt (MTS) can be reduced to purple-colored formazan by intact cells. […] The test peptide was dissolved in water and filtered through a 0.2-μm filter. The peptide concentration was quantitated by the UV280 to make a 5,120 μg/mL stock solution and then serially diluted in serum-free DMEM. On the second day, the medium was replaced with 100 μL of serum-free DMEM containing different peptide concentrations and incubated for 1 or 24 h. Serum-free DMEM without peptide was used as a negative control and medium containing 1% Triton X-100 was used as a positive control. One milligram of MTS powder was dissolved in 0.5 mL of Dulbecco’s phosphate-buffered saline (DPBS). The MTS solution was mixed with one-twentieth of a phenazine methosulfate (PMS) solution ([…]). To each well, 20 μL of the MTS/PMS solution was added. After 3 h, the absorbance was measured with an Infinite M1000 pro (Tecan Austria GmbH, Austria) at a wavelength of 490 nm. Cell viability was calculated using the following equation. Cellviability=[(A-Ap)/(An-Ap)]×100% A is the UV490 of the peptide-treated sample An is the UV490 of the sample without peptide (negative control) Ap is the UV490 of the Triton-treated sample (positive control)

Hemolytic assay = assay type: cell-based, rat; conditions: rat red blood cells, 256 μg/mL peptide, 37°C 45 min; read-out: Hemolysis (%) at 256 μg/mL
Experimental: The blood cells were washed three times with PBS, where the volume of PBS was the same as that of the original blood, by gently turning the centrifuge tube upside down. After washing, ten microliters of blood cells were diluted 2,000-fold in PBS to count the cells. Finally, red blood cells were diluted to 5 × 10^8 cells/mL in PBS. Peptides were dissolved in water and filtered through a 0.2-μm filter to make a stock solution. The peptide concentration was quantitated by the UV280. The peptide solution was diluted in PBS to different concentrations (five times the tested concentrations). Twenty microliters of the peptide in PBS was mixed with 80 μL of red blood cell solution in a 96-well plate (V-bottom). The final peptide concentration was 16–256 μg/mL. In the positive control group, 20 μL of 5% Triton X-100 was added to the red blood cell solution for a final Triton X-100 concentration of 1%. For the negative control group, 20 μL of PBS solution was added. The 96-well plate was incubated at 37°C for 45 min. After centrifuging the 96-well plate at 1,500 × g for 5 min, 30 μL of the supernatant was mixed with 100 μL of deionized water in a 96-well plate (flat bottom). The concentration of heme in each well was measured by the UV405 using an Infinite M1000 pro (Tecan Austria GmbH, Austria). The hemolytic activity was calculated using the following formula. Hemolyticactivity=[(F-F0)/(Ft-F0)]×100% F is the UV405 of the peptide-treated sample F0 is the UV405 of the sample without peptide (negative control) Ft is the UV405 of the Triton-treated sample (positive control)

Ac-WKKIKKIIKKIKKI-NH2 [pepI2]
MBC A. baumannii 17978 (A. baumannii ATCC 17978): 4 µg/mL
half-life at 0.6 mg/mL (in vitro): 11.2 h
Killing rate compared (A. baumannii 17978): killed A. baumannii faster than colistin sulfate
HEK293 IC50 (HEK293 cells; 1 h): 68.5 µg/mL
HEK293 IC50 (HEK293 cells; 24 h): 66.8 µg/mL
hemolysis at 45 min, 256 μg/mL (Hemolytic assay): 0.27%
